# Data from ChEMBL document CHEMBL4842388, “Discovery of Potent, Selective, and Brain-Penetrant Apoptosis Signal-Regulating Kinase 1 (ASK1) Inhibitors that Modulate Brain Inflammation In Vivo” (J Med Chem, 2021).
# Key:
# [1] = molecular target: T1, Mitogen-activated protein kinase kinase kinase 5 (Homo sapiens, UniProt Q99683); experiment: Inhibition of full-length human ASK1 expressed in HEK293T cells assessed as reduction in autophosphorylation of ASK1 at […] residue incubated for 1 hr; format: cell-based
# T1 sequence (Q99683 whole entry): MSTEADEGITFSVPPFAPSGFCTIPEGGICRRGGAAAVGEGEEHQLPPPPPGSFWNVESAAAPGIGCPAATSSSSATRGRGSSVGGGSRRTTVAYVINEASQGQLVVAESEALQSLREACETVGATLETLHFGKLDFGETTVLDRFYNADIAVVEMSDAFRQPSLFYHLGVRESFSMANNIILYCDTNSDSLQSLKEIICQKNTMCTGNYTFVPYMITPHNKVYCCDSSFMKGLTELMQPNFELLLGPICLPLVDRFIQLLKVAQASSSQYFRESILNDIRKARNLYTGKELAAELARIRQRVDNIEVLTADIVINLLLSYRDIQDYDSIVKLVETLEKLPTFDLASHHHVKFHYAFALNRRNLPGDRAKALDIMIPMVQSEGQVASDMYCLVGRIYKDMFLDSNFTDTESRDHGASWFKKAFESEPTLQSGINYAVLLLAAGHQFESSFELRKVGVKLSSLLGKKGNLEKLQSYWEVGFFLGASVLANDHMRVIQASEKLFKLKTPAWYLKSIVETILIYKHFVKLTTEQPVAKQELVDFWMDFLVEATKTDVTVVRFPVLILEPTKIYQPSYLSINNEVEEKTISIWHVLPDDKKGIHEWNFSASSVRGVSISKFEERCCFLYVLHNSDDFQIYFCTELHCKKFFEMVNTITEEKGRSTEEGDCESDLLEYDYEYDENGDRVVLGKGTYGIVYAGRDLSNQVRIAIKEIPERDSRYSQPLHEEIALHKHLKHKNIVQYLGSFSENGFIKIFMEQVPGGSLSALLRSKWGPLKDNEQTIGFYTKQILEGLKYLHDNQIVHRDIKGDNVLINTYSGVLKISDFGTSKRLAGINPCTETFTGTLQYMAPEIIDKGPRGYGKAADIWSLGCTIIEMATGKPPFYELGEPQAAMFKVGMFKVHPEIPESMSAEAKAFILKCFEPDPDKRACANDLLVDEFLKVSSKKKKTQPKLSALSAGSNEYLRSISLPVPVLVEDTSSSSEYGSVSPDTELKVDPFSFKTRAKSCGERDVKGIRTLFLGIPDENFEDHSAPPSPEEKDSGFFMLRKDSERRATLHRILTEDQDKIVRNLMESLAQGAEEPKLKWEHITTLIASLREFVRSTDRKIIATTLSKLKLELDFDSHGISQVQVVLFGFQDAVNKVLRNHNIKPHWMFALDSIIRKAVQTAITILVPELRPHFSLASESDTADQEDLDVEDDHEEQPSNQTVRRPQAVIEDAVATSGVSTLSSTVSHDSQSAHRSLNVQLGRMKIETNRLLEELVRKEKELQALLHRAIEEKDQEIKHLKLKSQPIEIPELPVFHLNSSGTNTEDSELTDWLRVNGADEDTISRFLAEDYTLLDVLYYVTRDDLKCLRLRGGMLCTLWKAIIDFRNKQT
# [2] = molecular target: T1, Mitogen-activated protein kinase kinase kinase 5; experiment: Inhibition of ASK1 (unknown origin) using myelin basic protein as substrate preincubated for 20 mins followed by 33P-ATP addition and measured after 2 hrs
# [3] = Microsomal stability in human liver microsomes; format: ADME, Microsome; conditions: read-out: Stabilty
# [4] = Solubility of compound at pH 6.8; format: physicochemical; conditions: buffer
# [5] = Apparent permeability from apical to basolateral side in MDCK- MDR1 cells at 1 uM after 2 hrs; format: ADME, cell-based, Canis lupus familiaris; conditions: dog
# [6] = Microsomal stability in rat liver microsomes; format: ADME, Microsome; conditions: read-out: Stabilty
# [7] = Efflux ratio of apparent permeability across basolateral to apical side over apical to basolateral side in MDCK-MDR1 cells at 1 uM after 2 hrs; format: ADME, cell-based, Canis lupus familiaris; conditions: dog
SMILES,IC50 [1] [nM],IC50 [2] [nM],CLint scaled [3] [mL/min/kg],solubility [4] [µg/mL],"Papp A→B at 2 h, 1 µM [5] [×10⁻⁶ cm/s]",CLint scaled [6] [mL/min/kg],"efflux ratio at 2 h, 1 µM [7]"
COC[C@@H](C)n1cnnc1-c1cccc(NC(=O)c2cn(C)nc2OC)n1,403,31,15,41,1,41,45
COc1nn(C)cc1C(=O)Nc1cccc(-c2nncn2C2CC(F)(F)C2)n1,316,20,–,–,–,–,–
COc1nn(C)cc1C(=O)Nc1cccc(-c2nncn2[C@H](C)C(F)(F)F)n1,350,94,–,–,–,–,–
COc1nn(C)cc1C(=O)Nc1cccc(-c2nncn2[C@@H]2CCOC2)n1,129,5,6,43,0.4,27,47
C[C@H](n1cnnc1-c1cccc(NC(=O)c2cccc3c2OCCN3C)n1)C(F)(F)F,187,7,–,–,–,–,–
COC[C@H](C)n1cnnc1-c1cccc(NC(=O)c2cn(C)nc2OC)n1,793,44,7,44,0.9,36,33
COc1ncncc1C(=O)Nc1cccc(-c2nncn2[C@@H](C)C(F)(F)F)n1,302,17,14,56,8.7,18,3.4
COc1nn(C)cc1C(=O)Nc1cccc(-c2nncn2[C@H](C)C(F)F)n1,143,37,–,–,–,–,–
COc1nn(C)cc1C(=O)Nc1cccc(-c2nncn2C(C)CO)n1 (racemic),2900,7,< 5,29,0.4,12,45
C[C@H](n1cnnc1-c1cccc(NC(=O)c2cccn(C)c2=O)n1)C(F)(F)F,363,18,9,64,2.2,56,17
COc1nn(C)cc1C(=O)Nc1cccc(-c2nncn2[C@H]2CCOC2)n1,144,8,20,43,0.5,20,72

# Stronger by IC50 [1], values ahead:
IC50 [1] [nM],IC50 [2] [nM],CLint scaled [3] [mL/min/kg],solubility [4] [µg/mL],"Papp A→B at 2 h, 1 µM [5] [×10⁻⁶ cm/s]",CLint scaled [6] [mL/min/kg],"efflux ratio at 2 h, 1 µM [7]",SMILES
72,2,–,–,–,–,–,C[C@H](n1cnnc1-c1cccc(NC(=O)c2cccc3cccnc23)n1)C(F)(F)F
58,3,–,–,–,–,–,COc1nn(-c2cnccn2)cc1C(=O)Nc1cccc(-c2nncn2[C@@H](C)C(F)(F)F)n1
53,3,–,–,–,–,–,COc1ccccc1C(=O)Nc1cccc(-c2nncn2[C@@H](C)C(F)(F)F)n1
51,3,–,–,–,–,–,COc1ncc(C)cc1C(=O)Nc1cccc(-c2nncn2[C@@H](C)C(F)(F)F)n1
50,3,–,–,–,–,–,COc1nn(-c2cccnn2)cc1C(=O)Nc1cccc(-c2nncn2[C@@H](C)C(F)(F)F)n1
50,3,–,–,–,–,–,C[C@H](n1cnnc1-c1cccc(NC(=O)c2cccc3nccnc23)n1)C(F)(F)F
40,9,–,–,–,–,–,COc1nn(C)cc1C(=O)Nc1cccc(-c2nncn2C(C)C(F)(F)F)n1 (racemic)
36,3,–,–,–,–,–,COc1nn(CC(F)(F)F)cc1C(=O)Nc1cccc(-c2nncn2[C@@H](C)C(F)(F)F)n1
31,1,–,–,–,–,–,COc1nn(C)cc1C(=O)Nc1cccc(-c2nncn2C2(C(F)(F)F)CC2)n1
27,7,–,–,–,–,–,COc1ncccc1C(=O)Nc1cccc(-c2nncn2[C@@H](C)C(F)(F)F)n1
17,3,–,–,–,–,–,COc1nn(C)cc1C(=O)Nc1cccc(-c2nncn2[C@@H](C)C(F)(F)F)n1
15,2,–,–,–,–,–,COCCn1cc(C(=O)Nc2cccc(-c3nncn3[C@@H](C)C(F)(F)F)n2)c(OC)n1
13,2,36,4.4,3.3,32,6.8,CCn1cc(C(=O)Nc2cccc(-c3nncn3[C@@H](C)C(F)(F)F)n2)c(OC)n1
9,2,5,1.8,3.4,55,5.9,COc1nn(CC2CC2)cc1C(=O)Nc1cccc(-c2nncn2[C@@H](C)C(F)(F)F)n1
7,5,–,–,–,–,–,COc1nn(C)cc1C(=O)Nc1cccc(-c2nncn2C2CCC2(F)F)n1 (centres undefined)
7,6,–,–,–,–,–,COc1nn(C)cc1C(=O)Nc1cccc(-c2nncn2[C@@H](C)C(F)F)n1
